Experimental data published in patent publication US9597407B2, “Targeted antimicrobial moieties” (C3 Jian, Inc., priority 2009, dated 2017).
“Also recorded” adds a separate entry of the source.

What was measured:
bacteria = assay: Binding of targeting peptides to microorganisms (Table 3); details: preferably 1x PBS; for Target(s) (microorganism bound by the targeting peptide) / Target(s) (microorganisms bound by the targeting peptide): peptide binding in aqueous buffers that varied depending on peptide solubility
microorganisms = assay: Morphology, biofilm and growth disruption by peptides (Table 5); type: cell-based; parameters: key: A: Peptide aggregates; B: Less hyphal formation; Clumps; Diffuse clumps and small polyps; F: Diffuse growth; H: Thin; I: Growth inhibition; Microcolony formation; Rippled; Small polyps; Thick; W: Halo formation on top, microlonies on bottom
Excerpt: In certain embodiments peptides that induce alterations in phenotype or other biological activities can also be used as antimicrobial effector moieties.

[1] = microorganism bound by the targeting peptide, binding in aqueous buffers chosen by peptide solubility

| Substance | Target(s) (microorganism bound by the targeting peptide) (bacteria) | Organism, effect (morphology, biofilm and growth disruption) (microorganisms; E. faecalis) | Organism, effect (morphology, biofilm and growth disruption) (microorganisms; MRSA) | Organism, effect (morphology, biofilm and growth disruption) (microorganisms; S. pneumoniae) | Target(s) (microorganisms bound by the targeting peptide) (bacteria) | further results |
| --- | --- | --- | --- | --- | --- | --- |
| PF-C071 (QVIVKIL; Peptide with targeting and/or antimicrobial activity) | A. naeslundii; also recorded: F. nucleatum; also recorded: S. mutans |  |  |  |  | Organism, effect (morphology, biofilm and growth disruption) (microorganisms; F. nucleatum): F. nucleatum (T) |
| PF-632 (chain 1 TTIQGVASLEKHGFRYTIIYPTRI; chain 2 TTIQGVASLEKHGFRYTIIYPTRI; Peptide with targeting and/or antimicrobial activity) | S. epidermidis and P. aeruginosa and C. albicans and MRSA and S. pneumoniae and E. faecalis and C. jeikeium | E. faecalis (D) | MRSA (D) | S. pneumoniae (M) |  | Organism, effect (morphology, biofilm and growth disruption) (microorganisms; B. subtilis): B. subtilis (H); Organism, effect (morphology, biofilm and growth disruption) (microorganisms; C. albicans): C. albicans (B); Organism, effect (morphology, biofilm and growth disruption) (microorganisms; C. jeikeium): C. jeikeium (D); Organism, effect (morphology, biofilm and growth disruption) (microorganisms; S. epidermidis): S. epidermidis (D) |
| SLQSQLGPCLHDQRH [PF-448] |  |  |  | S. pneumoniae (I) | S. epidermidis; also recorded: M. luteus; also recorded: P. mirabilis; also recorded: E. coli; also recorded: S. pneumoniae; also recorded: E. faecalis; also recorded: C. jeikeium; also recorded: C. jejuni |  |
| PF-417 (DSYFRS; Peptide with targeting and/or antimicrobial activity) |  |  |  |  | S. epidermidis; also recorded: C. jeikeium; also recorded: C. jejuni | Organism, effect (microorganisms; MRSA): MRSA (M); Organism, effect (microorganisms; S. epidermidis): S. epidermidis (M); Organism, effect (microorganisms; S. pneumoniae): S. pneumoniae (M) |
| PF-663 (chain 1 ATLIPRKA; chain 2 ATLIPRKA; Peptide with targeting and/or antimicrobial activity) | Mycobacteria spp |  |  | S. pneumoniae (A) |  |  |
| PF-654 (chain 1 LSGRLAGRR; chain 2 LSGRLAGRR; Peptide with targeting and/or antimicrobial activity) | Mycobacteria spp |  | MRSA (R) | S. pneumoniae (A) |  | Organism, effect (morphology, biofilm and growth disruption) (microorganisms; C. albicans): C. albicans (B) |
| PF-660 (chain 1 TDPQATAAPRRRTSPR; chain 2 TDPQATAAPRRRTSPR; Peptide with targeting and/or antimicrobial activity) | Mycobacteria spp |  |  | S. pneumoniae (H) |  |  |
| SIGSMIGMYSFRHKTKHIKFTFGIPFILFLQFLLVYFYILK [PF-319] |  |  |  |  |  | Target(s) (bacteria; [1]): S. epidermidis; also recorded: B. subtilis; also recorded: C. difficile; Organism, effect (microorganisms; B. subtilis): B. subtilis (C); Organism, effect (microorganisms; S. epidermidis): S. epidermidis (C) |
| PF-233 (DANAMARTTIAIVYILALIALTISYSL; Peptide with targeting and/or antimicrobial activity) |  |  |  |  |  | Target(s) (bacteria; [1]): S. epidermidis; also recorded: M. luteus; also recorded: P. aeruginosa; also recorded: A. baumannii; Organism, effect (microorganisms; S. epidermidis): S. epidermidis (C) |
| PF-069 (FDPVPLKKDKSASKHSHKHNH; Peptide with targeting and/or antimicrobial activity) |  |  |  |  |  | Target(s) (bacteria; microorganism the targeting peptide binds, binding in aqueous buffers that varied with peptide solubility): E. faecalis; also recorded: C. jejuni; Organism, effect (microorganisms; B. subtilis): B. subtilis (D); Organism, effect (microorganisms; C. jejuni): C. jejuni (R) |
| PF-593 (MEISTLKKEKLHVKDELSQYLANYKK; Peptide with targeting and/or antimicrobial activity) |  | E. faecalis (A) |  |  | C. jeikeium |  |
| PF-427 (YVLEYHGLRATQDVDAFMAL; Peptide with targeting and/or antimicrobial activity) |  | E. faecalis (C) | MRSA (C) | S. pneumoniae (R) | M. luteus; also recorded: P. aeruginosa; also recorded: C. albicans; also recorded: C. jejuni | Organism, effect (morphology, biofilm and growth disruption) (microorganisms; E. coli): E. coli (C) |
| PF-599 (LFEIFKPKH; Peptide with targeting and/or antimicrobial activity) | S. epidermidis and P. mirabilis and E. coli and C. albicans and MRSA and S. pneumoniae and C. jeikeium | E. faecalis (A) | MRSA (C) | S. pneumoniae (R) |  | Organism, effect (morphology, biofilm and growth disruption) (microorganisms; C. jejuni): C. jejuni (R); Organism, effect (morphology, biofilm and growth disruption) (microorganisms; S. epidermidis): S. epidermidis (M) |
